Laboratory results taken from patent US6355799B1, “Substituted benzene compounds, process for their preparation, and herbicidal and defoliant compositions containing them” (ISK Americas Incorporated, priority 1997, dated 2002).

Tests used:
Format in all cases: in vivo
[1] = tested on: redroot pigweed (Amaranthus retroflexus, AMARE); assay: Post-emerge test, greenhouse herbicide activity screening; conditions: phytotoxicity rating 0-100 (0 no damage, 100 complete death), 14 days after application
Procedure, shortened: (§1)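 Compounds in acetone were track-sprayed at 15-1000 g ai/ha (187 l/ha) on sandy loam pots: pre-emerge one day after seeding, post-emerge at 2-3 leaf stage with 0.25% v/v non-ionic surfactant. Phytotoxicity was rated 14 days later on a 0 (no damage) to 100 (complete death) scale.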

[2] = tested on: green foxtail (Setaria viridis, SETVI); assay: as above; conditions: phytotoxicity rating 0-100 (0 no damage, 100 complete death), 14 days after application
Procedure, shortened: as §1

[3] = tested on: sicklepod (Cassia obtusifolia, CASOB); assay: as above; conditions: phytotoxicity rating 0-100 (0 no damage, 100 complete death), 14 days after application
Procedure, shortened: as §1

[4] = tested on: johnsongrass (Sorghum halepense, SORHA); assay: as above; conditions: phytotoxicity rating 0-100 (0 no damage, 100 complete death), 14 days after application
Procedure, shortened: as §1

[5] = tested on: barnyardgrass (Echinochloa crus-galli, ECHCG); assay: as above; conditions: phytotoxicity rating 0-100 (0 no damage, 100 complete death), 14 days after application
Procedure, shortened: as §1

[6] = tested on: large crabgrass (Digitaria sanguinalis, DIGSA); assay: as above; conditions: phytotoxicity rating 0-100 (0 no damage, 100 complete death), 14 days after application
Procedure, shortened: as §1

[7] = tested on: lambsquarters (Chenopodium album, CHEAL); assay: as above; conditions: phytotoxicity rating 0-100 (0 no damage, 100 complete death), 14 days after application
Procedure, shortened: as §1

[8] = tested on: ivyleaf morningglory (Ipomoea hederacea, IPOHE); assay: as above; conditions: phytotoxicity rating 0-100 (0 no damage, 100 complete death), 14 days after application
Procedure, shortened: as §1

[9] = tested on: velvetleaf (Abutilon theophrasti, ABUTH); assay: as above; conditions: phytotoxicity rating 0-100 (0 no damage, 100 complete death), 14 days after application
Procedure, shortened: as §1

[10] = tested on: redroot pigweed (Amaranthus retroflexus, AMARE); assay: Pre-emerge test, greenhouse herbicide activity screening; conditions: rated 14 days after application, 0 = no damage, 100 = complete death
Procedure, shortened: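 Sandy loam pots; pre-emerge: sown 1 d pre-spray, surface-watered after, then bottom-watered. Post-emerge: sown 8–21 d before, 2–3 leaf stage, + 0.25% v/v NIS, bottom-watered. Acetone, 187 l/ha track spray, 15–1000 g ai/ha. 0–100 injury score, day 14.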

[11] = tested on: green foxtail (Setaria viridis, SETVI); assay: as above; conditions: rated 14 days after application, 0 = no damage, 100 = complete death
Procedure, shortened: (§2)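 Plants grown in 10 cm pots of sandy loam mix received acetone-dissolved compounds through a moving flat-fan nozzle. Doses ranged from 15 to 1000 g ai/ha. Pre-emerge pots were seeded one day earlier, post-emerge pots 8–21 days earlier. Fourteen days on, each pot was graded 0–100 for damage.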

[12] = tested on: sicklepod (Cassia obtusifolia, CASOB); assay: as above; conditions: rated 14 days after application, 0 = no damage, 100 = complete death
Procedure, shortened: as §2

[13] = tested on: johnsongrass (Sorghum halepense, SORHA); assay: as above; conditions: rated 14 days after application, 0 = no damage, 100 = complete death
Procedure, shortened: as §2

[14] = tested on: barnyardgrass (Echinochloa crus-galli, ECHCG); assay: as above; conditions: rated 14 days after application, 0 = no damage, 100 = complete death
Procedure, shortened: as §2

[15] = tested on: large crabgrass (Digitaria sanguinalis, DIGSA); assay: as above; conditions: rated 14 days after application, 0 = no damage, 100 = complete death
Procedure, shortened: as §2

[16] = tested on: lambsquarters (Chenopodium album, CHEAL); assay: as above; conditions: rated 14 days after application, 0 = no damage, 100 = complete death
Procedure, shortened: as §2

[17] = tested on: ivyleaf morningglory (Ipomoea hederacea, IPOHE); assay: as above; conditions: rated 14 days after application, 0 = no damage, 100 = complete death
Procedure, shortened: as §2

[18] = tested on: velvetleaf (Abutilon theophrasti, ABUTH); assay: as above; conditions: rated 14 days after application, 0 = no damage, 100 = complete death
Procedure, shortened: as §2

[19] = tested on: upland rice (Oryza sp., var. Tebonnet, RICE); assay: Post-emerge test, crop safety; conditions: phytotoxicity rating 0-100 (0 no damage, 100 complete death), 14 days after application
Procedure, shortened: (§3)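 Each test used a mechanized track sprayer delivering 187 l/ha of acetone solution at 15–1000 g ai/ha. Post-emerge foliage at 2–3 leaves was treated with added 0.25% v/v non-ionic surfactant and bottom-watered only. Injury was assessed on day 14, where 100 means total kill.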

[20] = tested on: field corn (Zea mays L., var. Dekalb 535, CORN); assay: Post-emerge test, crop safety; conditions: phytotoxicity rating 0-100 (0 no damage, 100 complete death), 14 days after application
Procedure, shortened: as §3

[21] = tested on: upland rice (Oryza sp., var. Tebonnet, RICE); assay: Pre-emerge test, crop safety; conditions: rated 14 days after application, 0 = no damage, 100 = complete death
Procedure, shortened: as §1

[22] = tested on: field corn (Zea mays L., var. Dekalb 535, CORN); assay: Pre-emerge test, crop safety; conditions: rated 14 days after application, 0 = no damage, 100 = complete death
Procedure, shortened: as §1

SMILES: COc1c(Cl)cc(F)c(-n2c(=O)cc(C(F)(F)F)n(C)c2=O)c1NC(=O)c1ccc(C)c(C)c1 [2-32]
- Post-emerge Herbicidal Activity AMARE ([1]; 63 g ai/ha): 100
- Post-emerge Herbicidal Activity AMARE ([1]; 250 g ai/ha): 100
- Post-emerge Herbicidal Activity SETVI ([2]; 63 g ai/ha): 0
- Post-emerge Herbicidal Activity SETVI ([2]; 250 g ai/ha): 90
- Post-emerge Herbicidal Activity CASOB ([3]; 63 g ai/ha): 80
- Post-emerge Herbicidal Activity CASOB ([3]; 250 g ai/ha): 100
- Post-emerge Herbicidal Activity SORHA ([4]; 63 g ai/ha): 50
- Post-emerge Herbicidal Activity SORHA ([4]; 250 g ai/ha): 95
- Post-emerge Herbicidal Activity ECHCG ([5]; 63 g ai/ha): 0
- Post-emerge Herbicidal Activity ECHCG ([5]; 250 g ai/ha): 90
- Post-emerge Herbicidal Activity DIGSA ([6]; 63 g ai/ha): 0
- Post-emerge Herbicidal Activity DIGSA ([6]; 250 g ai/ha): 70
- Post-emerge Herbicidal Activity CHEAL ([7]; 63 g ai/ha): 95
- Post-emerge Herbicidal Activity CHEAL ([7]; 250 g ai/ha): 100
- Post-emerge Herbicidal Activity IPOHE ([8]; 63 g ai/ha): 100
- Post-emerge Herbicidal Activity IPOHE ([8]; 250 g ai/ha): 100
- Post-emerge Herbicidal Activity ABUTH ([9]; 63 g ai/ha): 100
- Post-emerge Herbicidal Activity ABUTH ([9]; 250 g ai/ha): 100
- Pre-emerge Herbicidal Activity, phytotoxicity rating (0-100), AMARE ([10]; 63 g ai/ha): 100
- Pre-emerge Herbicidal Activity, phytotoxicity rating (0-100), AMARE ([10]; 250 g ai/ha): 100
- Pre-emerge Herbicidal Activity, phytotoxicity rating (0-100), SETVI ([11]; 63 g ai/ha): 100
- Pre-emerge Herbicidal Activity, phytotoxicity rating (0-100), SETVI ([11]; 250 g ai/ha): 100
- Pre-emerge Herbicidal Activity, phytotoxicity rating (0-100), CASOB ([12]; 63 g ai/ha): 95
- Pre-emerge Herbicidal Activity, phytotoxicity rating (0-100), CASOB ([12]; 250 g ai/ha): 100
- Pre-emerge Herbicidal Activity, phytotoxicity rating (0-100), SORHA ([13]; 63 g ai/ha): 90
- Pre-emerge Herbicidal Activity, phytotoxicity rating (0-100), SORHA ([13]; 250 g ai/ha): 100
- Pre-emerge Herbicidal Activity, phytotoxicity rating (0-100), ECHCG ([14]; 63 g ai/ha): 99
- Pre-emerge Herbicidal Activity, phytotoxicity rating (0-100), ECHCG ([14]; 250 g ai/ha): 100
- Pre-emerge Herbicidal Activity, phytotoxicity rating (0-100), DIGSA ([15]; 63 g ai/ha): 100
- Pre-emerge Herbicidal Activity, phytotoxicity rating (0-100), DIGSA ([15]; 250 g ai/ha): 100
- Pre-emerge Herbicidal Activity, phytotoxicity rating (0-100), CHEAL ([16]; 63 g ai/ha): 100
- Pre-emerge Herbicidal Activity, phytotoxicity rating (0-100), CHEAL ([16]; 250 g ai/ha): 100
- Pre-emerge Herbicidal Activity, phytotoxicity rating (0-100), IPOHE ([17]; 63 g ai/ha): 100
- Pre-emerge Herbicidal Activity, phytotoxicity rating (0-100), IPOHE ([17]; 250 g ai/ha): 100
- Pre-emerge Herbicidal Activity, phytotoxicity rating (0-100), ABUTH ([18]; 63 g ai/ha): 100
- Pre-emerge Herbicidal Activity, phytotoxicity rating (0-100), ABUTH ([18]; 250 g ai/ha): 100
- Post-emerge Herbicidal Activity RICE (crop damage) ([19]; 63 g ai/ha): 30
- Post-emerge Herbicidal Activity RICE (crop damage) ([19]; 250 g ai/ha): 80
- Post-emerge Herbicidal Activity CORN (crop damage) ([20]; 63 g ai/ha): 30
- Post-emerge Herbicidal Activity CORN (crop damage) ([20]; 250 g ai/ha): 95
- Pre-emerge phytotoxicity rating (0-100), crop damage, RICE ([21]; 63 g ai/ha): 80
- Pre-emerge phytotoxicity rating (0-100), crop damage, RICE ([21]; 250 g ai/ha): 99
- Pre-emerge phytotoxicity rating (0-100), crop damage, CORN ([22]; 63 g ai/ha): 40
- Pre-emerge phytotoxicity rating (0-100), crop damage, CORN ([22]; 250 g ai/ha): 95
